Here are results for 6 compounds from patent US20240084272A1, “CYTOCHROME P450 MONOOXYGENASES AND USES THEREOF” (THE UNIVERSITY OF BRITISH COLUMBIA, priority 2020, published 2024).

Common to all, as to format: cell-based, Camptotheca acuminata
In one assay the test system is Ca32236/CPT10H. Put plainly: In vivo yeast biotransformation / substrate scope assay with CPT 10-hydroxylase. To be noted: for Conversion rate (%): substrate converted to hydroxylated product, yeast in vivo assay, 1 L culture, calculated based on LCMS analysis. The source says: (§1) For heterologous expression of Flag-tagged CYP450s in yeast (Saccharomyces cerevisiae), the full-length coding region of each CYP450 candidate was cloned between SpeI and NcoI restriction sites of MCS1 of the dual plasmid pESC-Leu2d with a cytochrome P450 reductase (CPR) in MCS2 (Dang et al 2018, Nature Chemical Biology 14, 760-763; Rot al 2008, BMC biotechnology 8, 83) yielding pESC-Leu2d::CYP/CPR using In-Fusion cloning system (Takara Clontech). The resulted pESC-Leu2d::CYP/CPR was transformed to the protease-deficient yeast strain YPL 154C:Pep4KO, and yeast harbouring pESC-Leu2d::CPR was used as the negative control. To optimize HCPT production, Δerg6 Δtop1 yeast double mutant strain SMY75-1.4A43 was used, which was previously generated to allow better penetration of, and improved resistance to, topoisomerase I inhibitors such as CPT. The conditions for yeast culture, microsome preparation, and immunoblot analysis are further described below.
(§2) For screening in vivo CPT oxidation activities, 10 μM CPT was fed to 100-μL, cultures of YPLC 154C:Pep4KO yeast transformed with the vector for 48 h. The culture volume can be scaled up to 2 L with the camptothecin concentration up to 50 μM to produce sufficient products for structural characterization and/or semi-synthesis of camptothecin derivatives. Standard in vitro assays were performed at 30 C for 1 hour in 100 μL of 100 mM HEPES-NaOH (pH 7.5) containing […] of total microsomal proteins, 50 μM substrate (FIGS. 6) and 250 μM NADPH on a gyratory shaker with agitation (750 rpm). Reactions were stopped by adding 800 μL methanol. The reaction mixture was extracted twice with methanol to precipitate and remove proteins. The supernatant was subjected to LC-MS/MS analysis
(§3) For routine yeast culture, the transgenic yeast strain was inoculated in 2 mL of synthetic complete (SC) medium lacking leucine (SC-Leu) containing 2% (w/v) glucose and cultured overnight at 30 °C and 250 rpm. The culture was subsequently diluted 100-fold to an OD600 of 0.05 in SC-Leu supplemented with 2% (w/v) glucose and cultured for 16 hr. Yeast was then harvested and sub-cultured for 24 hr in YPA medium containing 2% (w/v) galactose to induce the production of recombinant CYP450s. Yeast cells were harvested by centrifugation and lysed for 2 min using a micro-bead beater (VWR) and 500-μm diameter glass beads in TES (0.6 M sorbitol in TE) buffer. The resulting lysate was subsequently centrifuged at 10,000 g for 15 min at 4 C. The supernatant was then transferred to a new tube and centrifuged at 40,000 g for 60 min at 4 C. Finally, the pellet containing microsomes was resuspended with TEG buffer (20% (v/v) glycerol in TE). Expression of Ca32229 and Ca32236 was confirmed by immunoblot analysis of microsomal fractions prepared from S. cerevisiae cultures harbouring the pESC-Leu2d::CPR/Ca32229 and pESC-Leu2d::CPR/Ca32236 vectors using α-FLAG M2 antibodies (ThermoFisher Scientific) detectable with SuperSignal West Pico Chemiluminescent Substrate (ThermoFisher Scientific) to probe epitope-tagged recombinant proteins (FIG. 6).
(§4) Enzyme assays were analyzed by ultra-performance liquid chromatography (UPLC) on a Xevo TQ-S Cronos Triple Quadrupole Mass Spectrometry (Waters). For all studies, chromatography was performed on an XBridge BEH XP (10×2.1 mm, 1.7 μm) column at a flow rate of 0.6 mL.min−1. The column was equilibrated in solvent A (0.1% formic acid) and the following elution conditions were used: 0 min, 5% B (100% acetonitrile); from 0 to 3.5 min, 35% B; from 3.5 min to 3.75 min, 100% B; 3.75 min to 4.75, 100% B; 4.75 to 6 min, 5% B to re-equilibrate the column. Data were analyzed with MassLynx and TargetLynx (Waters).
(§5) A calibration curve using camptothecin from 0-50 nM was made for quantification. Peaks areas of LC-MS chromatograms were calculated using MassLynx and TargetLynx from Waters and normalized. […]

A further assay concerns Ca32229/CPT11H. Kind of assay: In vivo yeast biotransformation / substrate scope assay with CPT 11-hydroxylase. To be noted: for Conversion rate (%): substrate converted to hydroxylated product, yeast in vivo assay, 1 L culture, calculated based on LCMS analysis; for acceptance as substrate / conversion: substrate scope, Example 4.
From the text: as §1, §2, §3, §4, §5

Assay [1] concerns camptothecin hydroxylases (CPTHs), Ca32236 (CPT 10-hydroxylase) and Ca32229 (CPT 11-hydroxylase). Kind of assay: In vivo conversion in yeast expressing CPT hydroxylases (enzyme not distinguished). As to conditions: for conversion rate to hydroxylated product, scale-up: 50 μM substrate, after 48-hr inoculation, LCMS; for acceptance as substrate (substrate specificity, FIG. 9): Ca32236 and Ca32229, different conversion rates.
From the text: as §1, §2
A calibration curve using camptothecin from 0-50 nM was made for quantification. Peaks areas of LC-MS chromatograms were calculated using MassLynx and TargetLynx from Waters and normalized. The amount of substrate consumption, product formation, conversion, and total product yield was quantified using corresponding calibration curves.
To generate sufficient amounts of HCPTs (10 and 11HCPT) and 7-ethyl-HCPT (7-ethyl-10 and 11HCPT) for the synthesis of topotecan, irinotecan and other compounds, enzymatic reactions was scaled up. The transgenic yeast strain was inoculated in 2 mL of synthetic complete medium lacking leucine (SC-Leu) containing 2% (w/v) glucose and cultured overnight at 30° C. and 275 rpm. The culture was subsequently diluted to an OD600 of 0.05 in SC-Leu supplemented with 2% (w/v) glucose and cultured for 16 hr. The yeast was then harvested and sub-cultured for 48 hr in YPA medium containing 2% (w/v) galactose, and 10% glycerol to induce the production of recombinant CYP450s. CPT or 7-ethyl-CPT substrate was fed directly into the culture to reach a final concentration of 50 μM as soon as the yeast was switched from SC-Leu to YPA medium. After 48-hr inoculation, a conversion rate of approximately 70% from CPT or 7-ethyl-CPT to its hydroxylated product was obtained and confirmed by LCMS analysis. The supernatant was collected by centrifugation at 4000 rpm, for 5 minutes. HCPT and 7-ethyl-HCPT were extracted out of reaction matrix by liquid-liquid extraction with ethyl acetate and chloroform, respectively. The solvent was removed by using a rotary evaporator to obtain crude HCPT and 7-ethyl-HCPT substrates for chemical synthesis to topotecan and irinotecan. HCPT and 7-ethyl-HCPT were purified by semi-preparative HPLC prior to the synthesis of derivatives.
A key advantage of the cytochrome P450 monooxygenase enzymes lies in the opportunity to functionalize the inert C—H bond and to further diversify the products to obtain valuable CPT-based scaffolds. […] First, the enzymatic conversion of CPT to HCPTs in yeast expressing CPT hydroxylases was optimized. The initial in vivo conversion rate maximized at 10% (FIG. 2), possibly because CPT is insoluble and the native yeast topoisomerase I is sensitive to CPT. […]

Take `CCC1(O)C(=O)OCc2c1cc1n(c2=O)Cc2cc3ccc(O)cc3nc2-1` (stereo not drawn) [Compound 11HCPT, 11-hydroxycamptothecin]: the acceptance as substrate entry in the assay on Ca32236/CPT10H (substrate scope, Example 4) is reported as “not accepted”.

For the compound `CC[C@@]1(O)C(=O)OCc2c1cc1n(c2=O)Cc2cc3ccccc3nc2-1` [CPT, camptothecin], the “Conversion rate (%)” value in the assay with Ca32229/CPT11H was 62%. Besides, the “Conversion rate (%)” value with Ca32236/CPT10H is recorded as 67%. For the same compound, in assay [1], the “conversion rate to hydroxylated product, scale-up” value was “approximately 70%” and the “acceptance as substrate (substrate specificity, FIG. 9)” value is listed as “accepted as substrates”. Further, the “initial in vivo conversion rate” value in assay [1] (CPT to HCPTs, before optimization) is given as not above 10%. Further, the “conversion in SMY75-1.4A yeast strain” value in assay [1] (SMY75-1.4A (Δerg6 Δtop1) yeast strain) is “up to 67%”. Further, in assay [1] (transgenic yeast in YPA medium with 2% galactose and 10% glycerol for 48 hrs), the “yield (conversion) after growth optimization” value is given as “up to 40%”.

`CCc1c2c(nc3ccccc13)-c1cc3c(c(=O)n1C2)COC(=O)[C@]3(O)CC` [Compound 7-EthylCPT, 7-ethylcamptothecin]: in the assay on Ca32229/CPT11H, the “Conversion rate (%)” value is 32% and the acceptance as substrate result is recorded as “accepted”. Besides, the “Conversion rate (%)” value in the assay with Ca32236/CPT10H is given as 8%. The acceptance as substrate result with Ca32236/CPT10H (substrate scope, Example 4) is listed as “accepted”. In assay [1], the “conversion rate to hydroxylated product, scale-up” value is given as “approximately 70%” and the “acceptance as substrate (substrate specificity, FIG. 9)” value is on record as “accepted as substrates”.

Turning to evodiamine, in assay [1], the “acceptance as substrate (substrate specificity, FIG. 9)” value is reported as “accepted as substrates”.

For the compound `CCC1(O)C(=O)OCc2c1cc1n(c2=O)Cc2cc3cc(O)ccc3nc2-1` (stereo not drawn) [10-HydroxyCPT, 10-hydroxycamptothecin], in the assay on Ca32229/CPT11H, the “Conversion rate (%)” value was 11%, the acceptance as substrate entry was “accepted” and the “conversion” value is on record as 7%. Besides, in assay [1], the “acceptance as substrate (substrate specificity, FIG. 9)” value was “accepted as substrates”.

As for `CC[C@@]1(O)C(=O)OCc2c1cc1n(c2=O)Cc2cc3c(N)cccc3nc2-1` [Compound 9-AminoCPT, 9-amino-camptothecin], in the assay with Ca32229/CPT11H, the “Conversion rate (%)” value was 9% and the “conversion” value is reported as 9%. Further, in the assay with Ca32236/CPT10H, the “Conversion rate (%)” value was 9%. In the assay with Ca32236/CPT10H (substrate scope, Example 4), the “conversion rate” value worked out at 9%. Besides, the “acceptance as substrate (substrate specificity, FIG. 9)” value in assay [1] is “accepted as substrates”.
